Assays:
[1] = Solubility of the lithium salts; type: physicochemical; settings: solvents as named in the value
rats rendus dépressifs [2] = assay: Modified one-way avoidance test in rat (second depression model); type: in vivo; settings: dose de 1 mg/kg; per os, twice daily, eight days
From the text: (§1) L'activité antidépressive du mélange folate de lithium - glutamate de lithium a été étudiée sur deux modèles de rats rendus dépressifs. On a utilisé comme molécule de référence, la desméthylimipramine (DMI) et comme produit de comparaison un mélange de carbonate de lithium, d'acide folique et d'acide glutamique dans les mêmes proportions que l'association selon l'invention. Les traitements ont été poursuivis per os avec administration biquotidienne durant huit jours.
Le second test pratiqué est un test à voie unique (one-way)modifié. Dans un premier temps on apprend aux rats à passer d'un compartiment à un autre pour éviter un choc électrique. Les rats sélectionnés qui donnent systématiquement la réponse d'évitement sont placés dans un système à quatre compartiments avec retour au premier compartiment. Les animaux apprennent à éviter le choc électrique en passant du compartiment I à II, puis II à III et […]. Le passage de IV vers I pose un problème puisque les rats reconnaissent (ou sentent) le point de départ.
Les rats s'immobilisent en position de « freezing » en dépit des décharges électriques qu'ils reçoivent. Le temps requis pour amener l'immobilisation correspond à une phase de dépression.

rats rendus dépressifs [3] = assay: Despair test in rat (first depression model); type: in vivo; settings: dose de 10 mg; per os, twice daily, eight days
From the text: as §1
Le premier modèle utilisé est le test du désespoir chez le rat (Despair Test). Les rats sont placés pour ce test dans une cuve d'eau tiédie à 27°C sans possibilité de s'échapper. Après une nage de quelques minutes, les animaux s'immobilisent et le temps moyen d'immobilité est chronométré. Il correspond à la phase de dépression. La DMI (antidépresseur de référence) à la dose de 10 mg diminue de 50 % ce temps d'immobilisation. Une courbe effet-dose a été établie avec l'association folate de lithium-glutamate de lithium. Un effet est observé dès la dose de 1 mg/kg. Il est maximum avec une dose de 20 mg/kg. A titre de comparaison, le lithium administré, sous forme de carbonate de lithium avec un mélange d'acide folique et d'acide glutamique, est moins actif sur ce modèle. On constate une potentialisation des effets du lithium lorsqu'il est administré sous forme de folate de lithium et de glutamate de lithium.

Compound | solubilité [1] | effet sur le temps d'immobilisation (freezing) (rats rendus dépressifs [2]) | diminution du temps d'immobilisation (rats rendus dépressifs [3]) [%]
folinate de lithium [folinate lithié] | solubles dans l'eau et les alcools |  | 
folate de lithium | solubles dans l'eau et les solvants hydroxylés |  | 
CNCCCN1c2ccccc2CCc2ccccc21 [DMI, desméthylimipramine] |  | supprime complètement ce temps d'immobilisation | 50

Reference: EP1319663A1, “Antidepressant folic -, folinic- and glutamic-acid lithium salts” (Dospharma S.A., priority 2001, dated 2003)
